Patent US20220378954A1, “METHODS FOR RADIOLABELLING GRPR ANTAGONISTS AND THEIR KITS” (NOVARTIS AG, priority 2019, published 2022)
“And” between values parts separate entries of the source, which are not always exact repeats. Equal entries are not always repeated.

Test: Peptide adhesion tests (non-specific binding of NeoB to glass and plastic surfaces)
Format: physicochemical
Settings: final formulation: NeoB 50 μg, Mannitol 20 mg, Kolliphor HS15 500 μg, Gentisic acid 200 μg; three independent radiolabelling tests; adhesion to the glass

CC(C)CC(CC(C)C)NC(=O)[C@H](Cc1cnc[nH]1)NC(=O)CNC(=O)[C@@H](NC(=O)[C@H](C)NC(=O)[C@H](Cc1c[nH]c2ccccc12)NC(=O)[C@H](CCC(N)=O)NC(=O)[C@@H](Cc1ccccc1)NC(=O)COCC(=O)Nc1ccc(CNC(=O)CN2CCN(CC(=O)O)CCN(CC(=O)O)CCN(CC(=O)O)CC2)cc1)C(C)C [NeoB]
Peptide Adhesion (%): 4.8% and 5.0% and 5.8%
